What was measured:
platelets of rabbit = assay: Fluidity of platelet membrane (fluorescence polarization); assay type: cell-based; set-up: Fluorescence polarization: unit not given here; conditions: fluidity increases as value decreases
Source text: The activity of compound (I) (lactate) and ifenprodil tartrate against the fluidity of platelet membrane was examined according to a known method (Biochimica et Biophysica Acta, vol. 798, page 210, 1984) using platelets of rabbit and using n-butyl alcohol as a positive control.

α2-adrenoceptor = assay: Antagonism of clonidine (α2-agonist) contraction in saphenous vein; assay type: cell-based, Mongrel dogs; conditions: clonidine
Source text: (§1) In this experiment, phenylephrine and clonidine were used as al-agonist and a2-agonist, respectively, and these agonists were cumulatively applied to obtain a dose-response curve.

male mice [1] = assay: Isoproterenol-induced tachycardia; assay type: in vivo; conditions: 25 mg/kg oral, 30 minutes before 0.01 mg/kg isoproterenol i.v.; three male mice
Experimental: 25 mg/kg of compound (I) was orally administered to three male mice. After 30 minutes from administration, 0.01 mg/kg of isoproterenol, which is a β-agonist, was intravenously administered, and the effect of compound (I) on tachycardia induced by isoproterenol was observed. The control group was compound (I) - untreated.

mice = assay: Protective action on death caused by endotoxin shock; assay type: in vivo; conditions: for Number of survival after administration of endotoxin: of 15 (Compound (I)) or 14 (ifenprodil) animals
Source text: Compound (I) and ifenprodil tartrate were orally administered to mice and the protective action on death due to endotoxin shock was examined in accordance with a known method (Folia pharmacol. japon, vol. 86, page 17, 1985). The control group was drug-untreated.

ddY male mice [2] = assay: Thromboembolic respiratory depression induced by ADP; assay type: in vivo; conditions: 30 mg/kg oral, ADP 40 mg/kg i.v., Compound (I) = erythro form
Experimental: The degree of formation of platelet thrombi in the pulmonary vessels of mice induced by intravenous administration of ADP can be measured based on the decrease in the respiratory rate. The anti-platelet thrombotic action of test drugs can be evaluated by using this decrease in the respiratory rate as a standard. […] Relative respiratory rate (%) was calculated according to the following formula. [formula] (cf. "Thrombosis Research", Vol. 35, Page 311, 1984)

male mice [3] = assay: Serum total cholesterol and β-lipoprotein in mice fed high cholesterol food; assay type: in vivo; conditions: 200 mg/kg oral on 6th and 7th day, high cholesterol food 7 days, three male mice
Experimental: Three male mice were fed high cholesterol food for 7 days and 200 mg/kg of compound (I) was orally administered on the 6th day and the 7th day. After a fast over night from the 7th day, measurements of the total cholesterol in serum (Abell et al, "Standard Method of Clinical Chemistry", vol. 2, page 26, […], published by Academic Press; Kanai et al, "[…]", vol. 7, page 64, 1978, published by Kanehara Shuppan) and the amount of β-lipoprotein (Fried-Hoeflmayer, Klin. Wschr., vol. 41, page 246, 1963; Kanai et al, "Rinsho Kensaho Teiyo", vol. 7, page 79, 1978, published by Kanehara Shuppan) were conducted. The control group was compound (I)-untreated.

Acute toxicity (LD50) = conditions: mouse, in vivo, mice
ddY male mice [4] = assay: Ameliorative activity against damage of cerebral hypoxia (reduced pressure); assay type: in vivo; conditions: i.p.; 30 mg/kg compound (I) and ifenprodil tartrate, 16 mg/kg phentolamine
Experimental: Thirty mg/kg each of compound (I) (lactate) and ifenprodil tartrate and 16 mg/kg of phentolamine, which is an a-adrenoceptor blocker, were intraperitoneally administered to ddY male mice, respectively. […] Time from start of reduction of pressure until stop of respiration in the mice was measured. The control group was drug-untreated.

α1-adrenoceptor = assay: Antagonism of phenylephrine (α1-agonist) contraction in saphenous vein; assay type: cell-based, Mongrel dogs; conditions: compared by pA2 value
Source text: as §1

CC(C(O)c1ccc(OCc2ccccc2)cc1)N1CCC(Cc2ccccc2)CC1 (stereo not drawn) [Compound (I), 2-(4-benzylpiperidino)-l-(4-benzyloxyphenyl)propan-l-ol]
Fluorescence polarization (platelets of rabbit; 1 µM): 2±4 | Fluorescence polarization (platelets of rabbit; 10 µM): 0±8 | Fluorescence polarization (platelets of rabbit; 30 µM): -2±0 | Fluorescence polarization (platelets of rabbit; 100 µM): -22±7 | antagonism on the α2-agonist (α2-adrenoceptor; concentration of 10^-5 M): non- competitive antagonism | antagonism on the α2-agonist (α2-adrenoceptor; concentration of 10^-6 M): No competitive antagonism is recognized | Inhibition % of isoproterenol-induced tachycardia (male mice [1]): 23% | Number of survival after administration of endotoxin (mice; 70 mg/kg oral, 18 hr): 12 | Number of survival after administration of endotoxin (mice; 70 mg/kg oral, 20 hr): 9 | Number of survival after administration of endotoxin (mice; 70 mg/kg oral, 22 hr): 8 | Number of survival after administration of endotoxin (mice; 70 mg/kg oral, 24 hr): 5 | Number of survival after administration of endotoxin (mice; 70 mg/kg oral, 48 hr): 1 | Number of survival after administration of endotoxin (mice; 200 mg/kg oral, 18 hr): 13 | Number of survival after administration of endotoxin (mice; 200 mg/kg oral, 20 hr): 13 | Number of survival after administration of endotoxin (mice; 200 mg/kg oral, 22 hr): 10 | Number of survival after administration of endotoxin (mice; 200 mg/kg oral, 24 hr): 7 | Number of survival after administration of endotoxin (mice; 200 mg/kg oral, 48 hr): 5 | protective action on the death (endotoxin shock) (mice; oral, mice, compound (I) at 200 mg/kg): remarkable protective action on the death | Relative respiratory rate (%) (ddY male mice [2]; 1/3 hr after administration): 53.1 ±11.7 (n=7) % | Relative respiratory rate (%) (ddY male mice [2]; 1 hr after administration): 51.2 ±5.6 (n=10) % | Relative respiratory rate (%) (ddY male mice [2]; 2 hr after administration): 52.8 ±7.4 (n=10) % | Relative respiratory rate (%) (ddY male mice [2]; 3 hr after administration): 49.0 ±8.4(*) (n=9) % | Relative respiratory rate (%) (ddY male mice [2]; 5 hr after administration): 41.9 ±11.5 (n=8) % | Reduction % as compared with control group Total cholesterol (male mice [3]; serum): 8% | Reduction % as compared with control group β-lipoprotein (male mice [3]): 18% | LD50 (Acute toxicity (LD50); iv, venous injection): > 70 mg/kg | LD50 (Acute toxicity (LD50); oral): > 1200 mg/kg | effect on survival time (cerebral hypoxia) (ddY male mice [4]): markedly prolongs survival time | competitive antagonism on the α1-agonist relative to that of ifenprodil (α1-adrenoceptor): about 1/15 | competitive antagonism on the α1-agonist relative to that of prazosin (α1-adrenoceptor): about 1/8

Reference: patent EP0232423A1, “CIRCULATION IMPROVING AGENT” (GRELAN PHARMACEUTICAL CO., LTD., priority 1985, dated 1987)
